Laboratory results as given in patent US20090239845A1, “PYRAZOLE COMPOUNDS AS PROSTAGLANDIN RECEPTORS LIGANDS” (priority 2005, published 2009).
Structures can show the parent of a compound that is named as a salt.

Legend:
[1] = target: T1, human prostanoid EP1 receptor (Homo sapiens, UniProt P34995); assay: Binding assay for the human prostanoid EP1 receptor (competition with [3H]-PGE2); conditions: negative logarithm10 of the IC50; competition with [3H]-PGE2, CHO-K1 cell membranes; averages of a number of experiments; read-out: pIC50 value (converted)
T1 construct: expressed in transfected cells; host or cells: CHO-K1 (membrane fraction)
T1 sequence (P34995 1-402): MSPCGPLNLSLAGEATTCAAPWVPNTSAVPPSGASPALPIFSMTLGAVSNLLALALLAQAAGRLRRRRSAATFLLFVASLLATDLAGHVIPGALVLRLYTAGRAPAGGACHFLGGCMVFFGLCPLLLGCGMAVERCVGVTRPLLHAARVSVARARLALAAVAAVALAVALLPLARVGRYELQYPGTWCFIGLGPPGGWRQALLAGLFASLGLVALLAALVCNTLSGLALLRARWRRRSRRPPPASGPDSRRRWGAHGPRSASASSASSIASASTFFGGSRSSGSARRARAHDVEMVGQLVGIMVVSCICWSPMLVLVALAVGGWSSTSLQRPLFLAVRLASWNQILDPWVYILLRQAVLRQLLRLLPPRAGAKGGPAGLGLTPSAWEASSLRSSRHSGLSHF
Protocol: Competition assay using [^3H]-PGE2.
Compound potencies are determined using a radioligand binding assay. In this assay compound potencies are determined from their ability to compete with tritiated prostaglandin E2 ([^3H]-PGE2) for binding to the human EP1 receptor.
This assay utilises Chinese hamster ovary-K1 (CHO-K1) cells into which a stable vector containing the EP1 cDNA has previously been transfected. Cells are cultured in suitable flasks containing culture medium such as DMEM:F-12 supplemented with 10% v/v foetal calf serum, 2 mM L-glutamine, 0.25 mg/ml geneticin, 10 μg/ml puromycin and 10 μM indomethacin.
Cells are detached from the culture flasks by incubation in calcium and magnesium free phosphate buffered saline containing 1 mM disodium ethylenediaminetetraacetic acid (Na2EDTA) and 10 μM indomethacin for 5 min. The cells are isolated by centrifugation at 250×g for 5mins and suspended in an ice cold buffer such as 50 mM Tris, 1 mM Na2EDTA, 140 mM NaCl, 10 μM indomethacin (pH 7.4). The cells are homogenised using a Polytron tissue disrupter (2×10s burst at full setting), centrifuged at 48,000×g for 20mins and the pellet containing the membrane fraction is washed (optional) three times by suspension and centrifugation at 48,000×g for 20mins. The final membrane pellet is suspended in an assay buffer such as 10 mM 2-[N-morpholino]ethanesulphonic acid, 1 mM Na2EDTA, 10 mM MgCl2 (pH 6). Aliquots are frozen at −80° C. until required.
For the binding assay the cell membranes, competing compounds and [^3H]-PGE2 (3 nM final assay concentration) are incubated in a final volume of 100 μl for 30 min at 30° C. All reagents are prepared in assay buffer. Reactions are terminated by rapid vacuum filtration over GF/B filters using a Brandell cell harvester. The filters are washed with ice cold assay buffer, dried and the radioactivity retained on the filters is measured by liquid scintillation counting in Packard TopCount scintillation counter.
The data are analysed using non linear curve fitting techniques to determine the concentration of compound producing 50% inhibition of specific binding (IC50).

[2] = target: T2, human EP1 receptor (Homo sapiens, UniProt P34995); assay: human EP1 calcium mobilisation assay; format: cell-based; conditions: negative logarithm10 of the antagonist dissociation constant; CHO-K1 cells, PGE2; free bases or sodium salts; averages of a number of experiments; read-out: functional pKi value (converted)
T2 construct: expressed in transfected cells; host or cells: CHO-K1
T2 sequence (P34995 1-402): T1 sequence (P34995 1-402)
Protocol: Briefly, the antagonist properties of compounds are assessed by their ability to inhibit the mobilisation of intracellular calcium ([Ca^2+]i) in response to activation of EP1 or EP3 receptors by the natural agonist hormone prostaglandin E2 (PGE2). Increasing concentrations of antagonist reduce the amount of calcium that a given concentration of PGE2 can mobilise. The net effect is to displace the PGE2 concentration-effect curve to higher concentrations of PGE2. The amount of calcium produced is assessed using a calcium-sensitive fluorescent dye such as Fluo-4, AM and a suitable instrument such as a Fluorimetric Imaging Plate Reader (FLIPR). Increasing amounts of [Ca^2+]i produced by receptor activation increase the amount of fluorescence produced by the dye and give rise to an increasing signal. The signal may be detected using the FLIPR instrument and the data generated may be analysed with suitable curve-fitting software.
The human EP1 or EP3 calcium mobilisation assay (hereafter referred to as ‘the calcium assay’) utilises Chinese hamster ovary-K1 (CHO-K1) cells into which a stable (pCIN; BioTechniques 20 (1996): 102-110) vector containing either EP1 or EP3 cDNA has previously been transfected. Cells are cultured in suitable flasks containing culture medium such as DMEM:F-12 supplemented with 10% v/v foetal calf serum, 2 mM L-glutamine, 0.25 mg/ml geneticin, 100 μM flurbiprofen and 10 μg/ml puromycin.
For assay, cells are harvested using a proprietary reagent that dislodges cells such as Versene. Cells are re-suspended in a suitable quantity of fresh culture media for introduction into a 384-well plate. Following incubation for 24 hours at 37° C. the culture media is replaced with a medium containing Fluo-4 and the detergent pluronic acid, and a further incubation takes place. Concentrations of compounds are then added to the plate in order to construct concentration-effect curves. This may be performed on the FLIPR in order to assess the agonist properties of the compounds. Concentrations of PGE2 are then added to the plate in order to assess the antagonist properties of the compounds.
The data so generated may be analysed by means of a computerised curve-fitting routine. The concentration of compound that elicits a half-maximal inhibition of the calcium mobilisation induced by PGE2 (plC50) may then be estimated.

Compound: Cc1cc(C(=O)Nc2ccc(CN3CCNC(=O)C3)cc2)nn1Cc1cc(Cl)ccc1OCC(C)C [Example 399, 1-({5-Chloro-2-[(2-methylpropyl)oxy]phenyl}methyl)-5-methyl-N-{4-[(3-oxo-1-piperazinyl)methyl]phenyl}-1H-pyrazole-3-carboxamide hydrochloride]
- IC50 [1]: ≤ 10 nM

Compound: Cc1cc(NC(=O)CC(C)(C)C)nn1Cc1cc(Cl)ccc1OCc1ccc(F)cc1Cl [Example 133, N-{1-[(5-Chloro-2-{[(2-chloro-4-fluorophenyl)methyl]oxy}phenyl)methyl]-5-methyl-1H-pyrazol-3-yl}-3,3-dimethylbutanamide]
- IC50 [1]: ≤ 10 nM

Compound: Cc1cc(-c2nc3cc(CO)ccc3[nH]2)nn1Cc1cc(Cl)ccc1OCC(C)C [Example 377, {2-[1-({5-Chloro-2-[(2-methylpropyl)oxy]phenyl}methyl)-5-methyl-1H-pyrazol-3-yl]-1H-benzimidazol-5-yl}methanol hydrochloride]
- IC50 [1]: ≤ 10 nM

Compound: Cc1cc(-c2nc3ncccc3[nH]2)nn1Cc1cc(Cl)ccc1OCC(C)C [Example 372, 2-[1-({5-Chloro-2-[(2-methylpropyl)oxy]phenyl}methyl)-5-methyl-1H-pyrazol-3-yl]-1H-imidazo[4,5-b]pyridine hydrochloride]
- IC50 [1]: ≤ 10 nM

Compound: Cc1cc(C(=O)Nc2ccc(CN3CCCC3)cc2)nn1Cc1cc(Cl)ccc1OCC(C)C [Example 396, 1-({5-Chloro-2-[(2-methylpropyl)oxy]phenyl}methyl)-5-methyl-N-[4-(1-pyrrolidinylmethyl)phenyl]-1H-pyrazole-3-carboxamide hydrochloride]
- IC50 [1]: ≤ 10 nM

Compound: Cc1cc(C(=O)Nc2ccc(CN3CCCCC3)cc2)nn1Cc1cc(Cl)ccc1OCC(C)C [Example 397, 1-({5-Chloro-2-[(2-methylpropyl)oxy]phenyl}methyl)-5-methyl-N-[4-(1-piperidinylmethyl)phenyl]-1H-pyrazole-3-carboxamide hydrochloride]
- IC50 [1]: ≤ 10 nM

Compound: Cc1cc(C(=O)NS(=O)(=O)c2ccccc2)nn1Cc1cc(Cl)ccc1OCc1ccccc1 [Example 355, 1-({5-Chloro-2-[(phenylmethyl)oxy]phenyl}methyl)-5-methyl-N-(phenylsulfonyl)-1H-pyrazole-3-carboxamide]
- IC50 [1]: ≤ 10 nM

Compound: Cc1cc(-c2nc3ccc(N4CCN(C)CC4)cc3[nH]2)nn1Cc1cc(Cl)ccc1OCC(C)C [Example 375, 2-[1-({5-Chloro-2-[(2-methylpropyl)oxy]phenyl}methyl)-5-methyl-1H-pyrazol-3-yl]-5-(4-methyl-1-piperazinyl)-1H-benzimidazole trihydrochloride]
- IC50 [1]: ≤ 10 nM

Compound: Cc1cc(NC(=O)C2CCCCC2)nn1Cc1cc(Cl)ccc1OCc1ccccc1 [Example 110, N-[1-({5-Chloro-2-[(phenylmethyl)oxy]phenyl}methyl)-5-methyl-1H-pyrazol-3-yl]cyclohexanecarboxamide]
- IC50 [1]: ≤ 10 nM

Compound: Cc1noc(C)c1S(=O)(=O)NC(=O)c1cc(C)n(Cc2cc(Cl)ccc2OCc2ccccc2)n1 [Example 356, 1-({5-Chloro-2-[(phenylmethyl)oxy]phenyl}methyl)-N-[(3,5-dimethyl-4-isoxazolyl)sulfonyl]-5-methyl-1H-pyrazole-3-carboxamide]
- IC50 [1]: ≤ 10 nM

Compound: Cc1c(-c2nc3cc(CN4CCN(C)CC4)ccc3[nH]2)cnn1Cc1cc(Cl)ccc1OCC(C)C [Example 381, 2-[1-({5-Chloro-2-[(2-methylpropyl)oxy]phenyl}meth-yl)-5-methyl-1H-pyrazol-4-yl]-5-[(4-methyl-1-piperazinyl)methyl]-1H-benzimidazole trihydrochloride]
- IC50 [1]: ≤ 10 nM

Compound: Cc1cc(NC(=O)OC(C)(C)C)nn1Cc1cc(Br)ccc1OCc1ccc(Cl)cc1Cl [Example 8, 1,1-Dimethylethyl {1-[(5-bromo-2-{[(2,4-dichlorophenyl)methyl]oxy}phenyl)methyl]-5-methyl-1H-pyrazol-3-yl}carbamate]
- IC50 [1]: ≤ 10 nM

Compound: Cc1cc(NC(=O)CC(C)(C)C)nn1Cc1cc(Cl)ccc1OCc1ccccc1 [Example 109, N-[1-({5-Chloro-2-[(phenylmethyl)oxy]phenyl}methyl)-5-methyl-1H-pyrazol-3-yl]-3,3-dimethylbutanamide]
- IC50 [1]: ≤ 10 nM

Compound: Cc1cc(NC(=O)OC(C)C)nn1Cc1cc(Br)ccc1OCc1ccc(F)cc1F [Example 7, 1-Methylethyl {1-[(5-bromo-2-{[(2,4-difluorophenyl)methyl]oxy}phenyl)methyl]-5-methyl-1H-pyrazol-3-yl}carbamate]
- IC50 [1]: ≤ 10 nM

Compound: Cc1cc(-c2nc3ccncc3[nH]2)nn1Cc1cc(Cl)ccc1OCC(C)C [Example 373, 2-[1-({5-Chloro-2-[(2-methylpropyl)oxy]phenyl}methyl)-5-methyl-1H-pyrazol-3-yl]-1H-imidazo[4,5-c]pyridine hydrochloride]
- IC50 [1]: ≤ 10 nM

Compound: Cc1cc(NC(=O)CC(C)C)nn1Cc1cc(Cl)ccc1OCC(C)C [Example 76, N-[1-({5-Chloro-2-[(2-methylpropyl)oxy]phenyl}methyl)-5-methyl-1H-pyrazol-3-yl]-3-methylbutanamide]
- IC50 [1]: ≤ 10 nM

Compound: CNCc1ccc(NC(=O)c2cc(C)n(Cc3cc(Cl)ccc3OCC(C)C)n2)c(OC)c1 [Example 412, 1-({5-Chloro-2-[(2-methylpropyl)oxy]phenyl}methyl)-5-methyl-N-[4-[(methylamino)methyl]-2-(methyloxy)phenyl]-1H-pyrazole-3-carboxamide hydrochloride]
- Ki [2]: > 1000 nM

Compound: Cc1cc(NC(=O)Cc2ccccc2)nn1Cc1cc(Cl)ccc1OCc1ccccc1F [Example 120, N-{1-[(5-Chloro-2-{[(2-fluorophenyl)methyl]oxy}phenyl)methyl]-5-methyl-1H-pyrazol-3-yl}-2-phenylacetamide]
- Ki [2]: > 1000 nM

Compound: Cc1cc(NC(=O)c2ccc(CN3CCCCC3)c(F)c2)nn1Cc1cc(Cl)ccc1OCC(C)C [Example 436, N-[1-({5-chloro-2-[(2-methylpropyl)oxy]phenyl}methyl)-5-methyl-1H-pyrazol-3-yl]-3-fluoro-4-(1-piperidinylmethyl)benzamide hydrochloride]
- Ki [2]: > 1000 nM

Compound: CCOC(=O)Nc1cc(C)n(Cc2cc(Cl)ccc2OCc2ccccc2)n1 [Example 66, Ethyl [1-({5-chloro-2-[(phenylmethyl)oxy]phenyl}methyl)-5-methyl-1H-pyrazol-3-yl]carbamate]
- Ki [2]: > 1000 nM

Compound: Cc1cc(S(=O)(=O)NC(=O)c2ccccc2)nn1Cc1cc(Cl)ccc1OCc1ccccc1 [Example 359, N-{[1-({5-Chloro-2-[(phenylmethyl)oxy]phenyl}methyl)-5-methyl-1H-pyrazol-3-yl]sulfonyl}benzamide]
- Ki [2]: > 1000 nM
